Source: US20260000676A1, “CHROMAN DERIVATIVES AS ESTROGEN RECEPTOR DEGRADERS” (THE REGENTS OF THE UNIVERSITY OF MICHIGAN, priority 2022, published 2026)
pIC50: −log10 of the molar value. Where a name gives a salt, the structure may show the parent alone.

Key:
MCF-7 cells = test: cells; settings: Homo sapiens, MCF7, 144 h, read-out: MCF7 Proliferation IC50 (nM)
Description: (§1) In vitro assay can be accomplished by MCF-7 and T47D Cell Titer Glo (CTG) assay. MCF-7 and T47D cell (From HDB) are cultured in multi-well white plate with phenol red-free RPMI1640+10% CS-FBS+1% P/S medium (e.g., at 1,000 cells/well). On day 0: Cells are treated with compound at certain concentrations (e.g., 0.5 to 10000 nM) (DMSO and Staurosporine as control). On day 0 and day 6: add Cell Titer Glo reagent and read on EnVision after 30 min incubation for data generation.
(§2) • 1) Cell culture medium: phenol red-free RPMI1640+10% CS-FBS, 1% P/S
(§3) Day-1: MCF-7 and T47D cell (From HDB) were cultured in 384-well white plate with phenol red-free RPMI1640+10% CS-FBS+1% P/S medium (1,000 cells/well) for overnight at 37° C., 5% CO2 incubator.
(§4) Day 0: Cells were treated at desired compound concentrations (0.5 to 10000 nM) (DMSO and Staurosporine as control) for Day 6 at 37° C., 5% CO2 incubator.
(§5) Day 0 and Day 6: add Cell TiterGlo reagent and read on EnVision after 30 min incubation for data generation.

ERα_LBD(GST) = ERα_LBD(GST) (Homo sapiens (Human), UniProt P03372); test: LanthaScreen TR-FRET ERα competitive binding assay; settings: read-out: ERα HTRF IC50
Sequence of ERα_LBD(GST) (P03372 311-547): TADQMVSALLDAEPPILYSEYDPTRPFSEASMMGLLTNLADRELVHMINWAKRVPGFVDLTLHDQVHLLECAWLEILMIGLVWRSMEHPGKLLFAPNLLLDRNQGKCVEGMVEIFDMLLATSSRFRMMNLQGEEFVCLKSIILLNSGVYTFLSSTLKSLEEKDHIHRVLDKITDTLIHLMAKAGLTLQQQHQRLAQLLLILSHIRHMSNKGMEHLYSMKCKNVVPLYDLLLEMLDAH
Method in brief: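 GST-tagged ERα LBD (4 nM) with Tb anti-GST (2 nM) and Fluormone ES2 Green tracer (3 nM) in nuclear receptor buffer K plus 5 mM DTT, 1% DMSO; 3-fold compound dilutions, 60 min at room temperature in the dark. TR-FRET 520/495 nm ratio vs log[ligand], sigmoidal fit for IC50; 1 μM ARV_471 as full-inhibition control.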

ER [1] = target: T1, ER (Homo sapiens (Human), UniProt P03372); test: In-cell western (ICW) ER degradation assay in T47D cells; assay type: cell-based; settings: 16 hrs; for DC50: ER degradation
T1 sequence (P03372 whole entry): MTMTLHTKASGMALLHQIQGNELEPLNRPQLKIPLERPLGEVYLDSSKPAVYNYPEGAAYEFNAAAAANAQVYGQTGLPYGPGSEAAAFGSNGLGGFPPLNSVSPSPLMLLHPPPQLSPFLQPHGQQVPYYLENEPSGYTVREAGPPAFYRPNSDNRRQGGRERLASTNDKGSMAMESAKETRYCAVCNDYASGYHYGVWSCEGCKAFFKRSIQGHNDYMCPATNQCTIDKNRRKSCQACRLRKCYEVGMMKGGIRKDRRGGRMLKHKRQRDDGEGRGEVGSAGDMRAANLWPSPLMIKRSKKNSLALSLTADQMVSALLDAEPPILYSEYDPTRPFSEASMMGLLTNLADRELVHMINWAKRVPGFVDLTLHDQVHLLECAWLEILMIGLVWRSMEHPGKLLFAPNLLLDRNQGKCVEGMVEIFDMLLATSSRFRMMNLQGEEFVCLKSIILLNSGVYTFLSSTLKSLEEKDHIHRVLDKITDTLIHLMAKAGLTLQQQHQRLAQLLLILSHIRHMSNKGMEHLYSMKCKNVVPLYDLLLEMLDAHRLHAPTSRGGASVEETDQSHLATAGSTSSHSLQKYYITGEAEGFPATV

ER [2] = target: T1, ER; test: In-cell western (ICW) ER degradation assay in MCF-7 cells; assay type: cell-based; settings: MCF7, 16 hrs; for DC50: ER degradation; for Dmax: MCF7, maximal ER degradation; for MCF7 Dmax %: maximal ER degradation
T47D cells = test: cells; settings: Homo sapiens, 144 h, read-out: T47D Proliferation IC50 (nM)
Description: as §1, §2, §3, §4, §5

CRBN/DDB1 = CRBN/DDB1 (Homo sapiens (Human), UniProt Q96SW2); test: HTRF binding assay to CRBN/DDB1; settings: read-out: CRBN HTRF IC50
Sequence of CRBN/DDB1 (Q96SW2 whole entry): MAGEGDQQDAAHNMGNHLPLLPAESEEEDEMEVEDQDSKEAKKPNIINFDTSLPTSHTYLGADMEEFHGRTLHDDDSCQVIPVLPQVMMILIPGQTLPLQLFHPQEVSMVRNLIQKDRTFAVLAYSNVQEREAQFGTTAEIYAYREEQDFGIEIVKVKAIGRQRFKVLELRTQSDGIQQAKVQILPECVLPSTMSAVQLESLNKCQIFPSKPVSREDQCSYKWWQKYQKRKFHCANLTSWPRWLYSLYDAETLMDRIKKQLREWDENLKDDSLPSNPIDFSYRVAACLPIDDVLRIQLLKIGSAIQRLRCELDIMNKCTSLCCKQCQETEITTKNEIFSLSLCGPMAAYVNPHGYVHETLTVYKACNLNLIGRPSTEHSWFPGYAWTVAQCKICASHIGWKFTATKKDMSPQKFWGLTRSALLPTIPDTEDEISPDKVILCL
Sequence of CRBN/DDB1 (Q16531 whole entry partner): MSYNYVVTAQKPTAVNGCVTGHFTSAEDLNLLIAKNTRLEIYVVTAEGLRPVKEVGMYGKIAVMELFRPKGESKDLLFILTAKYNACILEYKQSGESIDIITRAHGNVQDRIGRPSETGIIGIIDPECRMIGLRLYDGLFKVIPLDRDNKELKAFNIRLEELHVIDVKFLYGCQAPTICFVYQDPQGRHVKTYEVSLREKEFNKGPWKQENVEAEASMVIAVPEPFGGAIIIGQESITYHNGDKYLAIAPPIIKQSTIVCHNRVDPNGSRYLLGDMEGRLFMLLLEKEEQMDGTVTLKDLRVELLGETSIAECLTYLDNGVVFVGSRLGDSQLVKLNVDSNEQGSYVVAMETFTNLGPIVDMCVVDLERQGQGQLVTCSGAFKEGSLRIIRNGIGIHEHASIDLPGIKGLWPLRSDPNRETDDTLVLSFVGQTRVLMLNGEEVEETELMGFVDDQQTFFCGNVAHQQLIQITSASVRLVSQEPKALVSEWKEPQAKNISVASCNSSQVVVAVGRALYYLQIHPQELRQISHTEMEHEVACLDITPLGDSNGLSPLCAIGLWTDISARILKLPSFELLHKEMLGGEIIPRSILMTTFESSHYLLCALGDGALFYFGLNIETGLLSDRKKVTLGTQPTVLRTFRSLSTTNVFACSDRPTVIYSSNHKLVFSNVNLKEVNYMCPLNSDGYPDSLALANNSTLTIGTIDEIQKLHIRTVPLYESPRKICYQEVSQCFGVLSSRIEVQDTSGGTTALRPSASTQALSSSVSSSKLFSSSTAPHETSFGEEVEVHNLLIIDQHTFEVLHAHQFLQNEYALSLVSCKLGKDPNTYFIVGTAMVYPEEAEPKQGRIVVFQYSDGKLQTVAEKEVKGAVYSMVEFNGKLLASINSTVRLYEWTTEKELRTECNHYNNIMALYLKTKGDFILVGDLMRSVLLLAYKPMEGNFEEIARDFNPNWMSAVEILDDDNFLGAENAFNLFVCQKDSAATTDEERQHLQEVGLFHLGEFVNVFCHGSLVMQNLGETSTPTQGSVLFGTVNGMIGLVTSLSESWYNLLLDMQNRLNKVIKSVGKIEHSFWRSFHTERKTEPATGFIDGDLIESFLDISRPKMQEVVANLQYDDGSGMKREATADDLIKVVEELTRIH
Description: The binding potency was determined using HTRF assay technology (Perkin Elmer). Compounds were serially diluted in DMSO and 0.2 μL volume was transferred to white 384-well plate.

Row | Compound | IC50 (MCF-7 cells) [nM] | pIC50 (ERα_LBD(GST)) | DC50 (ER [1]) [nM] | Dmax (ER [1]; maximal ER degradation) [%] | DC50 (ER [2]) [nM] | Dmax (ER [2]) [%] | IC50 (T47D cells) [nM] | pIC50 (CRBN/DDB1) | T47D Dmax % (ER [1]; maximal ER degradation) | MCF7 Dmax % (ER [2]) | DC50 (ER [2]; formate) [nM] | MCF7 Dmax % (ER [2]; formate)
1 | O=C1CC[C@@H](N2Cc3cc4c(cc3C2=O)OC[C@H]2CN(CC3CCC5(CC3)CN(c3ccc([C@H]6c7ccc(O)cc7OC[C@H]6c6ccccc6)cc3)C5)CCN42)C(=O)N1 (single isomer, unassigned) [Compound A118] | 50 to 500 | > 8.30 | 1 to 10 | ≥ 75 | 1 to 10 | ≥ 75 | 50 to 500 | – | – | – | – | –
2 | O=C1CC[C@@H](N2Cc3cc4c(cc3C2=O)OCC2CN(CC3CCC5(CC3)CN(c3ccc([C@H]6c7ccc(O)cc7OC[C@H]6c6ccccc6)cc3)C5)CCN42)C(=O)N1 (stereo in doubt) [Compound A120, (R)-3-((R)-3-((2-(4-((3R,4S)-7-hydroxy-3-phenylchroman-4-yl)phenyl)-2-azaspiro[3.5]nonan-7-yl)methyl)-8-oxo-1,2,3,4,4a, 5,8,10-octahydro-9H-pyrazino[1′,2′:4,5][1,4]oxazino[2,3-f]isoindol-9-yl)piperidine-2,6-dione] | 50 to 500 | > 8.30 | < 1 | ≥ 75 | 1 to 10 | ≥ 75 | 50 to 500 | – | – | – | – | –
3 | COc1cc(N2CCC(CN3CCC(c4ccc(N[C@@H]5CCC(=O)NC5=O)cc4)CC3)CC2)ccc1[C@@H]1c2ccc(O)cc2OC[C@@H]1c1ccccc1 [Compound A150, (R)-3-((4-(1-((1-(4-((3S,4R)-7-hydroxy-3-phenylchroman-4-yl)-3-methoxyphenyl)piperidin-4-yl)methyl)piperidin-4-yl)phenyl)amino)piperidine-2,6-dione] | 50 to 500 | > 8.30 | < 1 | 25 to 50 | < 1 | 25 to 50 | 50 to 500 | – | – | – | – | –
4 | O=C1CCC(N2Cc3cc(N4CCN(CC5CCN(c6ccc([C@@H]7c8ccc(O)cc8OC[C@@H]7c7ccccc7)cc6)CC5)CC4)ccc3C2=O)C(=O)N1 (single isomer, unassigned) [Compound A62] | < 50 | > 8.30 | < 1 | 50 to 75 | < 1 | 50 to 75 | < 50 | 6.30 to 7.30 | – | – | – | –
5 | O=C1CCC(N2Cc3c(ccc4c3OCC43CCN(CC4CCC5(CC4)CN(c4ccc([C@@H]6c7ccc(O)cc7OC[C@@H]6c6ccccc6)cc4)C5)CC3)C2=O)C(=O)N1 (stereo partly drawn) [Compound A114, 3-(1′-((2-(4-((3S,4R)-7-hydroxy-3-phenylchroman-4-yl)phenyl)-2-azaspiro[3.5]nonan-7-yl)methyl)-6-oxo-6,8-dihydro-2H,7H-spiro[furo[2,3-e]isoindole-3,4′-piperidin]-7-yl)piperidine-2,6-dione] | < 50 | – | < 1 | ≥ 75 | < 1 | ≥ 75 | < 50 | > 7.30 | – | – | – | –
6 | O=C1CCC(N2Cc3cc4c(cc3C2=O)OC[C@@H]2CN(CC3CCC5(CC3)CN(c3ccc([C@@H]6c7ccc(O)cc7OC[C@@H]6c6ccccc6)cc3)C5)CCN42)C(=O)N1 (single isomer, unassigned) [Compound A58] | 50 to 500 | > 8.30 | 1 to 10 | – | 1 to 10 | – | 50 to 500 | 5.30 to 6.30 | B (“B”: >50% and <75%) | C (“C”: 25%-50%) | – | –
7 | O=C1CCC(Nc2ccc(N3CCN(CC4CC5(CCN(c6ccc([C@H]7c8ccc(O)cc8OC[C@H]7c7ccccc7)cc6)CC5)C4)CC3)c(F)c2)C(=O)N1 (single isomer, unassigned) [Compound A51] | 50 to 500 | – | < 1 | 25 to 50 | < 1 | 25 to 50 | 50 to 500 | 5.30 to 6.30 | – | – | – | –
8 | O=C1CC[C@H](N2Cc3c(ccc4c3OC[C@H]3CN(CC5CCC6(CC5)CN(c5ccc([C@@H]7c8ccc(O)cc8OC[C@@H]7c7ccccc7)cc5)C6)CCN43)C2=O)C(=O)N1 (single isomer, unassigned) [Compound A115] | 50 to 500 | > 8.30 | < 1 | ≥ 75 | < 1 | ≥ 75 | 50 to 500 | 6.30 to 7.30 | – | – | – | –
9 | O=C1CCC(N2Cc3cc4c(cc3C2=O)CN(C(=O)CN2CC3(CCN(c5ccc([C@H]6c7ccc(O)cc7OC[C@H]6c6ccccc6)cc5)CC3)C2)C4)C(=O)N1 (stereo partly drawn) [Compound A56, 3-(6-(2-(7-(4-((3R,4S)-7-hydroxy-3-phenylchroman-4-yl)phenyl)-2,7-diazaspiro[3.5]nonan-2-yl)acetyl)-1-oxo-3,5,6,7-tetrahydropyrrolo[3,4-f]isoindol-2(1H)-yl)piperidine-2,6-dione formate] | < 50 | – | < 1 | ≥ 75 | – | – | < 50 | 6.30 to 7.30 | – | – | 1 to 10 | B (“B”: >50% and <75%)
10 | O=C1CC[C@H](N2Cc3c(ccc4c3OC[C@H]3CN(CC5CC6(CCN(c7ccc([C@H]8c9ccc(O)cc9OC[C@H]8c8ccccc8)cc7)CC6)C5)CCN43)C2=O)C(=O)N1 (single isomer, unassigned) [Compound A50] | 50 to 500 | > 8.30 | < 1 | 50 to 75 | 1 to 10 | 50 to 75 | 50 to 500 | 6.30 to 7.30 | – | – | – | –
11 | O=C1CC[C@@H](N2Cc3cc4c(cc3C2=O)OC[C@H]2CN(CC3CCC5(CC3)CN(c3ccc([C@@H]6c7ccc(O)cc7OC[C@@H]6c6ccccc6)cc3)C5)CCN42)C(=O)N1 [Compound A119, (R)-3-((R)-3-((2-(4-((3S,4R)-7-hydroxy-3-phenylchroman-4-yl)phenyl)-2-azaspiro[3.5]nonan-7-yl)methyl)-8-oxo-1,2,3,4,4a,5,8,10-octahydro-9H-pyrazino[1′,2′:4,5][1,4]oxazino[2,3-f]isoindol-9-yl)piperidine-2,6-dione] | 50 to 500 | – | 1 to 10 | 50 to 75 | 1 to 10 | 50 to 75 | 500 to 5000 | 5.30 to 6.30 | – | – | – | –
12 | COc1cc(C(=O)NC2CCC(=O)NC2=O)ncc1N1CCN(CC2CC3(CCN(c4ccc([C@H]5c6ccc(O)cc6OC[C@H]5c5ccccc5)cc4)CC3)C2)CC1 (single isomer, unassigned) [Compound A116] | < 50 | – | < 1 | 50 to 75 | < 1 | 50 to 75 | 50 to 500 | 5.30 to 6.30 | – | – | – | –
13 | O=C1CC[C@@H](N2Cc3cc4c(cc3C2=O)OC[C@H]2CN(CC3CC5(CCN(c6ccc([C@@H]7c8ccc(O)cc8OC[C@@H]7c7ccccc7)cc6)CC5)C3)CCN42)C(=O)N1 [Compound A95, (R)-3-((R)-3-((7-(4-((3S,4R)-7-hydroxy-3-phenylchroman-4-yl)phenyl)-7-azaspiro[3.5]nonan-2-yl)methyl)-8-oxo-1,2,3,4,4a,5,8,10-octahydro-9H-pyrazino[1′,2′:4,5][1,4]oxazino[2,3-f]isoindol-9-yl)piperidine-2,6-dione] | 50 to 500 | – | 1 to 10 | 50 to 75 | 1 to 10 | 50 to 75 | < 50 | 5.30 to 6.30 | – | – | – | –
